Measured values published in patent US20230174488A1 (priority 2020, published 2023).
pIC50: −log10 of the molar value.

Molecular target: SARS-CoV-2 M^PRO (Severe acute respiratory syndrome coronavirus 2, UniProt P0DTD1)
Test: biochemical
Type: biochemical
Settings: In vitro potency data; 30 min pre-incubation, 25 nM M^pro, 25 µM substrate; read-out: IC50

SMILES	pIC50
O=C(NC1CCC(F)(F)CC1)[C@@H](c1cncnc1)N(C(=O)CCl)c1ccc(-c2ccns2)cc1	7.22
O=C(NC1CCC(F)(F)CC1)[C@H](c1cncnc1)N(C(=O)CCl)c1ccc(-c2ccns2)cc1	6.72
N#Cc1cc(OC(F)(F)F)ccc1N(C(=O)C(F)Cl)C(C(=O)NC1CCC(F)(F)CC1)c1cncnc1 (mixture of isomers) [INSCoV-517C, 2-Chloro-N-(2-cyano-4-(trifluoromethoxy)phenyl)-N-(2-((4,4-difluorocyclohexyl)amino)-2-oxo-1-(pyrimidin-5-yl)ethyl)-2-fluoroacetamide]	6.96
O=C(NC1CCC(F)(F)CC1)[C@H](c1cnccn1)N(C(=O)CCl)c1ccc(-c2ccno2)cc1 (racemic) [INSCoV-601H, 2-Chloro-N-(2-((4,4-difluorocyclohexyl)amino)-2-oxo-1-(pyrazin-2-yl)ethyl)-N-(4-(isoxazol-5-yl)phenyl)acetamide]	7.00
O=C(NC1CCC(F)(F)CC1)C(c1ccnnc1)N(C(=O)CCl)c1ccc(-c2ccns2)cc1 (racemic) [INSCoV-601J]	6.92
O=C(N[C@H]1CCOC1)C(c1cnccn1)N(C(=O)CCl)c1ccc(-c2ccno2)cc1 (mixture of isomers) [INSCoV-601Q, 2-Chloro-N-(4-(isoxazol-5-yl)phenyl)-N-(2-oxo-1-(pyrazin-2-yl)-2-(((S)-tetrahydrofuran-3-yl)amino)ethyl)acetamid]	6.82
CC(C)(C)c1ccc(N(C(=O)CCl)C(C(=O)NC2CCCCC2)c2cccnc2)cc1 (single isomer, unassigned) [INSCoV-110A(1), 2-(4-tert-butyl-N-(2-chloroacetyl)anilino)-N-cyclohexyl-2-(3-pyridyl)acetamide]	5.70
CC(C)(C)c1ccc(N(C(=O)CCl)C(C(=O)NC2CCCCC2)c2cccnc2)cc1 (single isomer, unassigned) [INSCoV-110A(2), 2-(4-tert-butyl-N-(2-chloroacetyl)anilino)-N-cyclohexyl-2-(3-pyridyl)acetamide]	5.67
N#Cc1cc(OC(F)(F)F)ccc1N(C(=O)CCl)C(C(=O)NC1CCC(F)(F)CC1)c1cncnc1 (single isomer, unassigned) [INSCoV-517A(1A), 2-Chloro-N-(2-cyano-4-(trifluoromethoxy)phenyl)-N-(2-((4,4-difluorocyclohexyl)amino)-2-oxo-1-(pyrimidin-5-yl)ethyl)acetamide]	7.52
N#Cc1cc(OC(F)(F)F)ccc1N(C(=O)CCl)C(C(=O)NC1CCC(F)(F)CC1)c1cncnc1 (single isomer, unassigned) [INSCoV-517A(1B), 2-Chloro-N-(2-cyano-4-(trifluoromethoxy)phenyl)-N-(2-((4,4-difluorocyclohexyl)amino)-2-oxo-1-(pyrimidin-5-yl)ethyl)acetamide]	5.49
N#Cc1cc(OC(F)(F)F)ccc1N(C(=O)C(F)Cl)C(C(=O)NC1CCC(F)(F)CC1)c1cncnc1 (single isomer, unassigned) [INSCoV-517C(1), 2-Chloro-N-(2-cyano-4-(trifluoromethoxy)phenyl)-N-(2-((4,4-difluorocyclohexyl)amino)-2-oxo-1-(pyrimidin-5-yl)ethyl)-2-fluoroacetamide]	4.95
N#Cc1cc(OC(F)(F)F)ccc1N(C(=O)[C@H](F)Cl)[C@@H](C(=O)NC1CCC(F)(F)CC1)c1cncnc1 (single isomer, unassigned) [INSCoV-517C(2), 2-Chloro-N-(2-cyano-4-(trifluoromethoxy)phenyl)-N-(2-((4,4-difluorocyclohexyl)amino)-2-oxo-1-(pyrimidin-5-yl)ethyl)-2-fluoroacetamide]	4.94
N#Cc1cc(OC(F)(F)F)ccc1N(C(=O)C(F)Cl)C(C(=O)NC1CCC(F)(F)CC1)c1cncnc1 (single isomer, unassigned) [INSCoV-517C(3), 2-Chloro-N-(2-cyano-4-(trifluoromethoxy)phenyl)-N-(2-((4,4-difluorocyclohexyl)amino)-2-oxo-1-(pyrimidin-5-yl)ethyl)-2-fluoroacetamide]	7.15
